In US20170112866A1, “ANTI-TUMOR AGENT CONTAINING TAXANE COMPOUND, AND ANTI-TUMOR EFFECT ENHANCER” (Taiho Pharmaceutical Company Limited, priority 2014, published 2017):

Key:
[1] = Paclitaxel dose finding in SC-2-bearing mice (Reference Example 2); conditions: doses 10, 20, 30 mg/kg/day on Days 1 and 8 tested
Protocol: (§1) A human gastric cancer cell line (SC-2) was transplanted to the right chest of 5 to 6-week-old BALB/cA Jcl-nu mice. After the tumor transplantation, the long diameter (mm) and the short diameter (mm) of the tumor were measured, and the tumor volume (TV) was calculated. […] Paclitaxel was administered at doses of 10, 20, and 30 mg/kg/day on Days 1 and 8.

[2] = tested on: human gastric cancer cell line (SC-2); test: Anti-tumor effect on SC-2 transplanted to nude mice (RTV, IR); assay type: in vivo; conditions: Day 29, tail vein, Day 1 and Day 8
Protocol: The FTD•TPI combination drug (a mixture of FTD and TPI at a molar ratio of 1:0.5) was prepared for administration at a dose of 150 mg/kg/day in terms of FTD. Paclitaxel (TXL, Wako Pure Chemical Industries, Ltd.) was prepared for administration at doses of 5 and 20 mg/kg/day. The FTD•TPI combination drug was orally administered on Days 1 to 14 consecutively, and paclitaxel was administered through the tail vein on Day 1 and Day 8. In the combination administration groups, the doses and administration schedules of the FTD•TPI combination drug and paclitaxel were the same as those of the corresponding monotherapy groups.
As an index of the anti-tumor effect, the TVs on Days 3, 7, 12, 15, 19, 22, 26, and 29 were calculated in each group. In accordance with the following equation, the relative tumor volume (RTV) to that on Day 0 was calculated and compared with the RTV of the untreated group (control).
TV (mm^3)=(long diameter×short diameter^2)/2
RTV=(TV on Day 29)/(TV on Day 0)
The RTVs were plotted on the indicated measurement days, and RTV changes over days in the control group, the FTD•TPI combination drug administration group, the paclitaxel administration group, and the combination administration group of the FTD•TPI combination drug and paclitaxel were compared.
The tumor growth inhibition rate (IR) on Day 29 on the basis of RTV values was calculated in accordance with the following equation.
IR (%)=[1−(mean RTV value of treated group)/(mean RTV value of control group)]×100

[3] = mouse, in vivo
Protocol: as §1

Compound: CC(=O)O[C@H]1C(=O)[C@@]2(C)[C@H]([C@H](OC(=O)c3ccccc3)[C@]3(O)C[C@H](OC(=O)[C@H](O)[C@@H](NC(=O)c4ccccc4)c4ccccc4)C(C)=C1C3(C)C)[C@]1(OC(C)=O)CO[C@@H]1C[C@@H]2O [Paclitaxel (TXL), (−)-(1S,2S,3R,4S,5R,7S,8S,10R,13S)-4,10-diacetoxy-2-benzoyloxy-5,20-epoxy-1,7-dihydroxy-9-oxotax-11-en-13-yl(2R,3S)-3-benzoylamino-2-hydroxy-3-phenylpropionate]
- recommended dose for mice [1]: 20 mg/kg/day
- IR (tumor growth inhibition rate) ([2]; paclitaxel 5 mg/kg/day): 27.1%
- RTV (mean ± SD) ([2]; paclitaxel 5 mg/kg/day): 44.97 ± 1.78
- IR (tumor growth inhibition rate) ([2]; paclitaxel 20 mg/kg/day): 83.6%
- RTV (mean ± SD) ([2]; paclitaxel 20 mg/kg/day): 10.13 ± 2.94
- mice deceased [3]: four of the six mice deceased
